This is an account of results in patent US5891882A, “Benzopyranopyrrole and benzopyranopyridine α-1 adenergic compounds” (priority 1997, dated 1999).

Each structure is given as a SMILES string. Structures can show the parent of a compound that is named as a salt.

A word on the Ki: it is the equilibrium dissociation constant of an inhibitor or competing ligand from its target. The low end stands for a stronger hold on the target, the high end for a looser hold on the target.

Series [1] has as its target T1, α-1b adrenoreceptor (hamster) (Mesocricetus auratus, UniProt P18841).
T1 construct: expressed in transfected cells; cDNA from TULCO; membranes
T1 sequence (P18841 1-515): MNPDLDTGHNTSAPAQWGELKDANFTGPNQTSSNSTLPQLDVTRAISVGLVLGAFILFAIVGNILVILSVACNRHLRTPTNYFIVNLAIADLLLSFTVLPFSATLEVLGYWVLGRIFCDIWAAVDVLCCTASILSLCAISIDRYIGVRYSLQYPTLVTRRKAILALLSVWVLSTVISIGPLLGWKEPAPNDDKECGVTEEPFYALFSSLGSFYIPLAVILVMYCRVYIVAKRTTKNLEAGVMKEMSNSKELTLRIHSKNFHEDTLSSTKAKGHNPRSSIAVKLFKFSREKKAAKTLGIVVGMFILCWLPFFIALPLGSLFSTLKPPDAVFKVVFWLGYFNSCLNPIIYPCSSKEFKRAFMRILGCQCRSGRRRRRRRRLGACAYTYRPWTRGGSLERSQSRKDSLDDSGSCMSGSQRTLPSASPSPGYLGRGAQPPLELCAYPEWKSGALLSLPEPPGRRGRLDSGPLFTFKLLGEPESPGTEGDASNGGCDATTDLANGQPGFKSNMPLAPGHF
Briefly: In vitro [3H]-prazosin radioligand binding, cloned α-1b adrenoreceptor expressed in LTK cells. The text has this: (§1) The cDNA clones encoding the α-1 adrenoreceptors (α-1a, α-1b, and α-1d) were obtained from TULCO (Triangle Universities Licensing Consortium, Research Triangle Park, N.C.) and inserted into the eukaryotic expression vector SnaB30. In this vector, expression of the adrenoreceptor gene is under the transcriptional control of an SV40 early promoter. Positive drug selection is provided by a neomycin-resistance gene. Mouse fibroblast cells (LTK) were transfected with the α1 expression plasmids and grown in Dulbecco's modified Eagle's medium (DMEM) containing 10% fetal calf serum and […]. Stable G418-resistant parental lines were generated, with successful expression of adrenoreceptor protein monitored using radioligand binding techniques. Stable single cell clones derived from the parental lines were screened in adrenoreceptor binding assays to identify clones having high adrenoreceptor density. Roller bottle cultures of the cloned lines were used to provide cell membranes for subsequent adrenoreceptor binding characterization studies. A cell line containing the SnaB30 vector expressing the human erythropoietin gene served as a negative control.
(§2) For adrenoreceptor binding assays, large scale membrane preparations were utilized in which 6 million cells were seeded into small (450 cm^2) Corning tissue culture roller bottles. 200 mL of DMEM containing 10% fetal calf serum and 300 μM G418 were added to each roller bottle. A 95% air/5% CO2 gas mixture (sterile) was injected into each roller bottle prior to sealing. The bottles were then incubated at 37° C. on a roller rack for 5 days. Cells were re-fed with fresh medium after 3 days in culture.
(§3) On the fifth day of culture, growth medium was removed from cells grown in roller bottles, and the cells were washed twice with PBS (Sigma, 120 mM NaCl, 2.7 mM KCl, 10 mM Na2 HPO4 --NaH2 PO4, pH=7.4). Cells were detached from the roller bottles by incubating for 15 minutes at 37° C. in a Tris-EDTA solution (10 mM Tris, 100 mM NaCl, 1 mM EDTA, pH=7.4). The cell suspension from each roller bottle was decanted into tared centrifuge tubes and kept on ice. An aliquot of each cell suspension was generally taken for cell counting. Cells were centrifuged at 3000×G for 5 min at 2°-4° C., washed with PBS and recentrifuged. The supernatant was decanted and the pellet weighed to determine the wet weight of cells. Cells were washed a final time in 40 vol 5 mM Tris-HCl, 5 mM EDTA, pH=7.7, and centrifuged at 40,000×G for 10 minutes. Cells were homogenized in 10 mL of 50 mM Tris-HCl, 5 mM EDTA (pH=7.4) and diluted to 40 mL/tube. Homogenates were centrifuged at 40,000×G for 10 minutes. The supernatant was decanted and the pellets rehomogenized in 50 mM Tris-HCl (pH=7.4) and centrifuged as before. The supernatant was decanted and the homogenate resuspended in 6.25 volumes (per gram wet weight) of 50 mM Tris-HCl and aliquots of the pooled homogenates frozen in liquid N2 and stored at -70° C. until the time of assay. Rat submaxillary glands were used for α-1A adrenoreceptors and were prepared essentially as described (Michel, A. D., Loury, D. N. and Whiting, R. L., Brit. J. Pharmacol. 98: 83-889 (1989)).
(§4) Receptor binding assays for α-1 adrenoreceptors were performed essentially as described by Greengrass and Bremner (Eur. J. Pharmacol. 55: 323-326 (1979)). […] Radioactivity was determined by standard liquid scintillation techniques. Data were analyzed as previously described (Hancock, A. A., Kyncl, J. J., Martin, Y. C. and DeBernardis, J. F., J Receptor Res. 8: 23-46 (1988)).

For series [2], the target named is T2, α-1a adrenoreceptor (bovine) (Bos taurus, UniProt P18130).
T2 construct: expressed in transfected cells; cDNA from TULCO; membranes
T2 sequence (P18130 1-466): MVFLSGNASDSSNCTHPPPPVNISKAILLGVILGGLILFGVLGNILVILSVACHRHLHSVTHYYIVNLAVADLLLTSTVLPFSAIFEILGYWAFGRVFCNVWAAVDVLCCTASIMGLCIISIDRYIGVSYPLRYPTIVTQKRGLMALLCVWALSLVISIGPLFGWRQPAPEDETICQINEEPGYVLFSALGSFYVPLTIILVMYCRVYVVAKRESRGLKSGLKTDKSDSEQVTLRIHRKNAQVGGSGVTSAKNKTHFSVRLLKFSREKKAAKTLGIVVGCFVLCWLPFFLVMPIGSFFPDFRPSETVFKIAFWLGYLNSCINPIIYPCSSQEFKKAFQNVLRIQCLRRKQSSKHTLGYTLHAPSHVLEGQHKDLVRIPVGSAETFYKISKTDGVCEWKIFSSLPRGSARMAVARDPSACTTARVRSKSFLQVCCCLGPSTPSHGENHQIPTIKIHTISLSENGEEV
Briefly: In vitro [3H]-prazosin radioligand binding, cloned α-1a adrenoreceptor expressed in LTK cells.
Text: as §1, §2, §3, §4

Series [3] deals with T3, α-1A adrenoreceptor (rat submaxillary gland) (Rattus norvegicus, UniProt P43140).
T3 construct: Rat submaxillary glands were used for α-1A adrenoreceptors; from tissue; host or cells: rat submaxillary gland membranes
T3 sequence (P43140 1-466): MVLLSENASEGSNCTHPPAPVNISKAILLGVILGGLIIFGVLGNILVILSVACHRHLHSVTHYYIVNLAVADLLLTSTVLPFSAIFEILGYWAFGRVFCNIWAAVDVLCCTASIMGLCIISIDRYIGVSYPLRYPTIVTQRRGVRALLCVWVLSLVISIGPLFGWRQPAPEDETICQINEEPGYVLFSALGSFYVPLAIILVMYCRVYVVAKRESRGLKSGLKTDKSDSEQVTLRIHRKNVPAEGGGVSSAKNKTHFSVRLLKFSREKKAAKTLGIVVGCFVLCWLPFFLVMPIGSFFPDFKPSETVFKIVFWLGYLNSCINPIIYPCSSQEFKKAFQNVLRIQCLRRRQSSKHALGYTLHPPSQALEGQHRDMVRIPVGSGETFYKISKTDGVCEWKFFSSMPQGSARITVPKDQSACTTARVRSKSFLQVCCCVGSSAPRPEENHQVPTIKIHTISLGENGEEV
Briefly: In vitro [3H]-prazosin radioligand binding, pharmacologically defined α-1A adrenoreceptor (rat submaxillary gland). How it is done: (§5) Additionally, binding affinity against the pharmacologically defined α-1A adrenoreceptor (rat submaxillary gland) was measured.
as §3, §4

For series [4], the target named is T4, α-1d adrenoreceptor (rat) (Rattus norvegicus, UniProt P23944).
T4 construct: expressed in transfected cells; cDNA from TULCO; membranes
T4 sequence (P23944 1-561): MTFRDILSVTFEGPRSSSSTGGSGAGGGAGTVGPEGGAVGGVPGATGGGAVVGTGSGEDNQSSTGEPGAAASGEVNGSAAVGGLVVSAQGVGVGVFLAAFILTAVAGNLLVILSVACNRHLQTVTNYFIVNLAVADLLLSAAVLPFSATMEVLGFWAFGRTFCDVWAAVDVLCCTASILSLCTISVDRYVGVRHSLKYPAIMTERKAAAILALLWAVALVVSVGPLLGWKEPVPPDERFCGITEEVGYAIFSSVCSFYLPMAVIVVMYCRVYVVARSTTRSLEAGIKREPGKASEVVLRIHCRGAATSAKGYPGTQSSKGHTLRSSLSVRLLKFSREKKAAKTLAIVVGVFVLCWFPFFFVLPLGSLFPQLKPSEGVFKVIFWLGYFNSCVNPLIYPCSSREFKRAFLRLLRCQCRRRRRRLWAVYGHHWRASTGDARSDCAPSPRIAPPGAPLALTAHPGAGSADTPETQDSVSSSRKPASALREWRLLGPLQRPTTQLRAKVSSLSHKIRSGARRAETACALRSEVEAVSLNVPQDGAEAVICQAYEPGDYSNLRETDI
The experiment in a line: In vitro [3H]-prazosin radioligand binding, cloned α-1d adrenoreceptor expressed in LTK cells. As for the experimental part:
as §5, §1, §2, §3, §4

The next series has as its system α-1 adrenoreceptor. The conditions noted are these: cited from earlier work; for dose limiting side effects: BPH treatment; for urinary flow rates and subjective symptom scores: longer term studies, BPH; for clinical efficacy in BPH: non-selective α-1 blockers.
In series [5] the target is T5, α-1 Adrenoceptors (Rat Aorta) (Rattus norvegicus, UniProt P23944).
T5 construct: Rat Aorta; from tissue; host or cells: rat aorta
T5 sequence (P23944 1-561): T4 sequence (P23944 1-561)
Briefly: Functional antagonism at α-1 adrenoceptors, rat aorta. The series is classed as cell-based. The source says: Functional assays indicative of pharmacologically defined α-1 adrenoreceptors were used to further characterize compounds. Inhibition of phenylephrine (PE)-induced contraction of canine prostate smooth muscle can be correlated with α-1A adrenoreceptor activation. […] For each of these models, agonist dose response curves were repeated against increasing concentrations of test agent to derive a Schild plot [log ([…]) against log (molarity of test agent)] to determine the pA2.

Regarding `COc1cc2[nH]c(=O)n(CCCCN3C[C@@H]4COc5cccc(OC)c5[C@H]4C3)c(=O)c2cc1OC` (racemic) [Example 82, 3-[4-((±)-trans-9-Methoxy-1,2,3,3a,4,9b-hexahydro-[1]-benzopyrano[3,4-c]pyrrol-2-yl)butyl]-6,7-dimethoxy-quinazoline-2,4(1H,3H)-dione dihydrochloride], the Ki is 4.9 nM in series [1], 0.361 nM in series [2], 0.577 nM in series [3] and 1.58 nM in series [4].

For `COc1cccc2c1[C@@H]1CCN(CCCn3c(=O)[nH]c4c(sc5ncccc54)c3=O)C[C@H]1CO2` (relative stereo) [Example 84, 3-[3-(±)-trans-10-Methoxy-1,3,3,4a,5,10b-hexahydro-2H-[1]-benzopyrano[3,4-c]pyrido-3-yl)propyl]-pyrido[3',2':4,5]thieno[3,2-d]pyrimidine-2,4(1H,3H)-dione hydrochloride], the Ki in series [1] came out at 4.92 nM; in series [2] it was 0.617 nM; in series [3], 0.479 nM; in series [4], 1.12 nM.

Regarding `COc1cc2[nH]c(=O)n(CCCCN3CC[C@H]4c5c(OC)cccc5OC[C@@H]4C3)c(=O)c2cc1OC` (relative stereo) [Example 86, 3-[4-((±)-trans-10-Methoxy-1,3,4,4a,5,10b-hexahydro-2H-[1]-benzopyrano[3,4-c]pyrido-3-yl)butyl]-6,7-dimethoxy-quinazoline-2,4(1H,3H)-dione hydrochloride], the Ki in series [1] was 1.71 nM; in series [2], 0.202 nM; in series [3], 0.54 nM; in series [4], 0.398 nM.

Regarding `COc1cccc2c1[C@@H]1CCN(CCCn3c(=O)[nH]c4c(sc5ccccc54)c3=O)C[C@H]1CO2` (relative stereo) [Example 89, 3-[3-((±)-trans-10-Methoxy-1,3,4,4a,5,10b-hexahydro-2H-[1]-benzopyrano[3,4-c]pyrido-3-yl)propyl]-[1]-benzthieno[3,2-d]pyrimidine-2,4(1H,3H)-dione hydrochloride], the Ki in series [1] turned out to be 0.111 nM; in series [2] it was 0.038 nM; in series [3], 0.133 nM; in series [4], 0.061 nM.

For `COc1cccc2c1[C@@H]1CCN(CCn3c(=O)[nH]c4c(sc5ccccc54)c3=O)C[C@H]1CO2` (relative stereo) [Example 90, 3-[2-((±)-trans-10-Methoxy-1,3,4,4a,5,10b-hexahydro-2H-[1]-benzopyrano[3,4-c]pyrido-3-yl)ethyl]-[1]-benzthieno[3,2-d]pyrimidine-2,4(1H,3H)-dione hydrochloride], the Ki in series [1] was determined as 2.29 nM; in series [2] it was 0.135 nM; in series [3] it was 0.323 nM; in series [4], 0.439 nM.

As for `COc1cc2nc(N3CCN(C(=O)C4COc5ccccc5O4)CC3)nc(N)c2cc1OC` (centres unmarked) [Doxazosin, doxazosin], in the series on α-1 adrenoreceptor, the “dose limiting side effects” value was “hypotension, dizziness, and muscle fatigue”; the “urinary flow rates and subjective symptom scores” value is “significant improvements in urinary flow rates and subjective symptom scores”; the “clinical efficacy in BPH” value was “Clinical efficacy”.

For the compound `COc1cc2nc(N3CCN(C(=O)C4CCCO4)CC3)nc(N)c2cc1OC` (centres unmarked) [Terazosin, terazosin], in the series on α-1 adrenoreceptor, the “dose limiting side effects” value is “hypotension, dizziness, and muscle fatigue”; the “urinary flow rates and subjective symptom scores” value was “significant improvements in urinary flow rates and subjective symptom scores”; the “clinical efficacy in BPH” value is recorded as “Clinical efficacy”. Further, the “In Vitro Characterization (pA2) Rat Aorta” value in series [5] worked out at 8.65.

For the compound `O=C(NC1CCN(CCc2c[nH]c3ccccc23)CC1)c1ccccc1` [indoramin], in the series on α-1 adrenoreceptor, the “dose limiting side effects” value is “hypotension, dizziness, and muscle fatigue”; the “urinary flow rates and subjective symptom scores” value is “significant improvements in urinary flow rates and subjective symptom scores”.
